Laboratory results: patent publication US11958842B2, “Substituted phenazines and methods of treating cancer and bacterial diseases” (Adjutec Pharma AS, priority 2016, dated 2024)

Key:
hepG2 = assay: Cytotoxicity (Example 73, Table 2); format: cell-based; settings: Homo sapiens; hepG2, 24 hours of incubation; read-out: EC50 (μM) hepG2
[1] = Parallel artificial membrane permeability assay (PAMPA); settings: PAMPA, 50 μM in PBS, room temperature, five hours

LogPeff [1]: −5.29
SMILES: COc1cccc2c1[n+]([O-])c1cccc(O)c1[n+]2O [Example 5a, 1-hydroxy-6-methoxyphenazine 5.10-dioxide, reference compound]
EC50 (hepG2): 70 µM
